Experimental data from patent US8436049B2, “Uses of pentamidine and related compounds” (State of Oregon Acting By and Through the State Board of …, priority 2008, dated 2013).
Entries after “also recorded” stand apart in the source; their conditions may differ.

Assays:
[1] = mouse, in vivo
Procedure: Mouse handling and experimental procedures were conducted in accordance with the Association for Assessment and Accreditation of Laboratory Animal Care. HSA^LR transgenic mice in line 20b expressing human skeletal actin mRNA with ˜250 CUG repeats in the 3′ UTR were used (Mankodi et al., Science 289:1769-1772, 2000). Age- and gender-matched HSA^LR mice were injected intraperitoneally with pentamidine or saline (control). For a low-dose regimen, 25 mg/kg of pentamidine was administrated twice daily for 5 days. For a higher-dose regimen, 40 mg/kg of pentamidine was injected once daily for 7 days. Mice were sacrificed one day after the last injection, and vastus muscle was obtained for splicing analysis. […] The PCR products were analyzed on agarose gels and scanned with a laser fluorimager (Typhoon, GE Healthcare, Piscataway, N.J.). Differences between the two groups were evaluated by Student's t-test.
The ability of pentamidine to rescue mis-splicing in a mouse model (HSA^LR) where CUG repeats are expressed was tested. Pentamidine was administered by intraperitoneal injection in two dosage regimens, and mis-splicing of the Clc-1 and Serca1 pre-mRNAs was measured.

[2] = tested on: Clc-1 pre-mRNA splicing, HSA^LR transgenic mice; assay: Clc-1 exon 7a splicing in vastus muscle of HSA^LR mouse model of DM; type: in vivo; settings: intraperitoneal, saline HSA^LR control 46±6%, normal mice 94±1%
Procedure: (§4) Mouse handling and experimental procedures were conducted in accordance with the Association for Assessment and Accreditation of Laboratory Animal Care. HSA^LR transgenic mice in line 20b expressing human skeletal actin mRNA with ˜250 CUG repeats in the 3′ UTR were used (Mankodi et al., Science 289:1769-1772, 2000). Age- and gender-matched HSA^LR mice were injected intraperitoneally with pentamidine or saline (control). For a low-dose regimen, 25 mg/kg of pentamidine was administrated twice daily for 5 days. For a higher-dose regimen, 40 mg/kg of pentamidine was injected once daily for 7 days. Mice were sacrificed one day after the last injection, and vastus muscle was obtained for splicing analysis. […] PCR amplification was carried out for 22-24 cycles with the following primer pairs: Clc-1 forward, [sequence] (SEQ ID NO: 7), and reverse, [sequence] (SEQ ID NO: 8); Serca1 forward, [sequence] (SEQ ID NO: 9), and reverse, [sequence] (SEQ ID NO: 10). The PCR products were analyzed on agarose gels and scanned with a laser fluorimager (Typhoon, GE Healthcare, Piscataway, N.J.). Differences between the two groups were evaluated by Student's t-test.

[3] = tested on: cTNT splicing reporter in HeLa cells; assay: cTNT splicing reporter (exon 5 inclusion) in HeLa cells with or without CUG960 plasmid; type: cell-based; settings: for cTNT exon 5 inclusion: absence of CUG repeats; for Rescue of cTNT exon 5 inclusion: cells expressing 960 CUG repeats
Procedure: (§1) HeLa cells were grown in monolayers in DMEM with GlutaMAX™ (Gibco, Carlsbad, Calif.) and supplemented with 10% fetal bovine serum. Approximately 2.0 (±0.2)×10^5 cells were plated in 6 well plates and transfected 18-20 hours later at 70-90% confluency. 1 μg of plasmid was transfected into each well of cells, using 5 μL of […] (Invitrogen) according to the manufacturer's protocols. For co-transfection, 1 μg of total plasmid was transfected, at 500 ng of each construct. Test compounds were added 4 hours after transfection, when the media was changed. Cells were harvested 18-22 hours after transfection using TrypLE™ reagent (Gibco).
(§2) Immediately following harvesting, RNA was isolated from the cell pellets using an RNeasy® kit (Qiagen, Valencia, Calif.). 500 ng of isolated RNA was DNased with RQI DNase (Promega, Madison, Wis.) according to manufacture's protocol. 100 ng of DNAsed RNA was reverse transcribed with Superscript® II (Invitrogen, Carlsbad, Calif.) and a cTNT-specific reverse primer according to manufacturer's protocols. 30 ng of the reverse transcription reaction was subjected to 22-25 rounds of PCR amplification using cTNT specific primers spiked with a forward primer 5′ end-labeled with [γ-^32P]ATP. Similar methods were used to reverse transcribe and amplify IR and PLEKHH2. […] The resulting PCR products were run on a 6% (19:1) polyacrylamide denaturing gel. The gel was subsequently autoradiographed and quantitation of the radioactive bands was performed using ImageQuant® software.
(§3) The following primer pairs were used. For the cTNT minigene, the forward primer was […] (SEQ ID NO: 1), and the reverse primer was […] (SEQ ID NO: 2). For the IR minigene, the forward primer was […] (SEQ ID NO: 3), and the reverse primer was […] (SEQ ID NO: 4). The underlined sections are for cloning purposes. For the PLEKHH2 minigene, the forward primer was […] (SEQ ID NO: 5), and the reverse primer was […] (SEQ ID NO: 6).
The ability of pentamidine to alter the splicing defects observed in a cell-based model for DM was tested. This was accomplished in a system using cells transformed with a plasmid expressing 960 CUG repeats where the expression of these CUG repeats causes splicing defects similar to those observed in DM cells and DM subjects (Savkur et al., Nature Genet. 29:40-47, 2001).

[4] = tested on: IR splicing reporter in HeLa cells; assay: IR splicing reporter (exon 11 inclusion) in HeLa cells with or without CUG960 plasmid; type: cell-based; settings: for Rescue of IR reporter mis-splicing: cells expressing 960 CUG repeats
Procedure: as §1, §2, §3
The ability of pentamidine to alter the splicing defects observed in a cell-based model for DM was tested. […]

[5] = tested on: CUG960 RNA nuclear foci / MBNL-GFP in HeLa cells; assay: CUG foci formation and MBNL-GFP sequestration in HeLa cells transfected with MBNL-GFP and CUG960; type: cell-based; settings: 50 μM
Procedure: HeLa cells were plated in 6 well plates onto coverslips pre-treated with poly-L-lysine. Cells were transfected as described in Example 3. For transfection, 50 ng of MBNL-eGFP plasmid and 500 ng of CUG960 plasmid were transfected for each experiment. A total of 1 μg of plasmid DNA was transfected, with the additional amount being empty pcDNA3 vector. After transfection, pentamidine was added and the cells were fixed 16 hours later.
Cells were fixed for 15 min at room temperature (RT) with 4% paraformaldehyde and washed 5 times for 2 min in 1×PBS at RT. Cells were stored at 4° C., if not probed immediately. For fluorescence in situ hybridization, cells were permeabilized with 2% pre-chilled acetone in 1×PBS, at RT for 5 min. Cells were pre-washed with 30% formamide, 2×SSC for 10 min at RT. Cells were then probed for 2 hours at 37° C., with 1 ng/μl Cy3 CAG10 probe (Integrated DNA Technologies, Coralville, Iowa) in 30% formamide, 2×SSC, 0.02% BSA, 66 μg/ml yeast tRNA, 2 mM vanadyl complex. The cells were washed for 30 min in 30% formamide, 2×SSC at 42° C., then with 1×SSC for 30 min at RT. […] MBNL-eGFP was visualized using GFP fluorescence, exciting from 450-490 nm and visualizing at 520 nm. […]
Cells were scored by eye with the following criteria. […] 201 cells were scored for the MBNL-GFP and CUG960 double transfection. 242 cells treated with pentamidine (50 μM) were scored. […]

[6] = tested on: Serca1 pre-mRNA splicing, HSA^LR transgenic mice; assay: Serca1 exon 22 splicing in vastus muscle of HSA^LR mouse model of DM; type: in vivo; settings: intraperitoneal, HSA^LR control 17±4%, normal 99.7±0.1%
Procedure: as §4

[7] = 25 mg/kg twice daily for 5 days

Question: What does the source list for N=C(N)c1ccc(OCCCCCOc2ccc(C(=N)N)cc2)cc1 [pentamidine]?
Answer: Toxicity in mice [1]: substantial toxicity; Clc-1 exon 7a exclusion [2, 7]: 63±3%; Clc-1 exon 7a exclusion ([2]; 40 mg/kg once daily for 7 days): 66±4%; cTNT exon 5 inclusion ([3]; 25 μM): 62%; Rescue of cTNT exon 5 inclusion ([3]; 25 μM): no effect; Rescue of cTNT exon 5 inclusion ([3]; 50 μM): partial rescue; also recorded: partially rescue the cTNT mis-splicing; cTNT exon 5 inclusion ([3]; 75 μM): 30%; Rescue of cTNT exon 5 inclusion ([3]; 75 μM): full recovery; Concentration giving complete rescue of cTNT missplicing ([3]; presence of the CUG960 construct): 75 µM; Rescue of IR reporter mis-splicing ([4]; 25 μM): partially rescued; Rescue of IR reporter mis-splicing ([4]; 50 μM): fully rescued; also recorded: fully rescue the IR mis-splicing; Effect on splicing of the IR reporter ([4]; cells lacking the CUG repeats): did not affect the splicing of the IR reporter; Characteristics of CUG RNA foci [5]: the foci became increasingly more diffuse; MBNL sequestration to foci [5]: partially relieved in many cells; Serca1 exon 22 inclusion [6, 7]: 22±2%; Serca1 exon 22 inclusion ([6]; 40 mg/kg once daily for 7 days): 40±4%
